Source: PubChem BioAssay AID248 (DTP/NCI, 2004)
Several values for one entry are separate records, joined by “and”; a condition that tells them apart may be missing. Equal entries are not always repeated. Inconclusive results and toxic doses are left out. No stated cut-off is given here; in the data, active means T/C of 150% or more; inactive means T/C below 125%. Peptide text beside a SMILES is read from it. * marks the point of attachment. Cbz = O=C(OCc1ccccc1)*

Test system: L1210 leukemia ip in BDF1 mice, survival T/C
Experiment: NCI In Vivo Anticancer Drug Screen. Data for tumor model L1210 Leukemia (intraperitoneal) in B6D2F1 (BDF1) mice
Details: endpoint: mean survival time, higher = longer survival
Summary of the method: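 Survival endpoint. Drug-treated group vs vehicle group, expressed as T divided by C. Tumor passaged by transplantation.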

[1] = dose: 100.0 mg/kg/injection, schedule: Q01DX001 (ip), vehicle: saline
[2] = dose: 200.0 mg/kg/injection, schedule: Q01DX001 (ip), vehicle: saline
[3] = dose: 400.0 mg/kg/injection, schedule: Q01DX001 (ip), vehicle: saline
[4] = dose: 100.0 mg/kg/injection, schedule: Q04DX002 (ip), vehicle: Klucel (hydroxypropylcellulose) (HPC)
[5] = dose: 200.0 mg/kg/injection, schedule: Q04DX002 (ip), vehicle: Klucel (hydroxypropylcellulose) (HPC)
[6] = dose: 200.0 mg/kg/injection, schedule: Q04DX003 (ip), vehicle: saline with Tween-80
[7] = dose: 400.0 mg/kg/injection, schedule: Q04DX002 (ip), vehicle: Klucel (hydroxypropylcellulose) (HPC)
[8] = dose: 100.0 mg/kg/injection, schedule: Q01DX001 (ip), vehicle: carboxymethylcellulose (CMC)
[9] = dose: 200.0 mg/kg/injection, schedule: Q01DX001 (ip), vehicle: carboxymethylcellulose (CMC)
[10] = dose: 400.0 mg/kg/injection, schedule: Q01DX001 (ip), vehicle: carboxymethylcellulose (CMC)
[11] = dose: 100.0 mg/kg/injection, schedule: Q01DX009 (ip), vehicle: saline with Tween-80
[12] = dose: 200.0 mg/kg/injection, schedule: Q01DX009 (ip), vehicle: saline with Tween-80
[13] = dose: 100.0 mg/kg/injection, schedule: Q04DX003 (ip), vehicle: saline

Measured: T/C

CC(C)(CNC1CCCC1)OC(=O)c1ccccc1
inactive: dose: 75.0 mg/kg/injection, schedule: Q01DX001 (ip), vehicle: saline 97 % of control and 95 % of control | dose: 150.0 mg/kg/injection, schedule: Q01DX001 (ip), vehicle: saline 107 % of control

CC(=O)Oc1ccc(OC(C)=O)c([N+](=O)[O-])c1
inactive: [1] 103 % of control | [2] 102 % of control | [3] 103 % of control

O=C(O)CNC(=O)CNC(=O)OCc1ccccc1 (Cbz-Gly-Gly-OH)
inactive: dose: 100.0 mg/kg/injection, schedule: Q01DX009 (ip), vehicle: Klucel (hydroxypropylcellulose) (HPC) 95 % of control | dose: 100.0 mg/kg/injection, schedule: Q04DX003 (ip), vehicle: Klucel (hydroxypropylcellulose) (HPC) 97 % of control | dose: 200.0 mg/kg/injection, schedule: Q01DX009 (ip), vehicle: Klucel (hydroxypropylcellulose) (HPC) 95 % of control | dose: 200.0 mg/kg/injection, schedule: Q04DX003 (ip), vehicle: Klucel (hydroxypropylcellulose) (HPC) 101 % of control | dose: 400.0 mg/kg/injection, schedule: Q01DX009 (ip), vehicle: Klucel (hydroxypropylcellulose) (HPC) 100 % of control | dose: 400.0 mg/kg/injection, schedule: Q04DX003 (ip), vehicle: Klucel (hydroxypropylcellulose) (HPC) 94 % of control

CC(=O)C1COC(O)C1C (stereo not drawn)
inactive: dose: 0.15 mg/kg/injection, schedule: Q01DX009 (ip), vehicle: saline 102 % of control | dose: 0.31 mg/kg/injection, schedule: Q01DX009 (ip), vehicle: saline 100 % of control | dose: 0.62 mg/kg/injection, schedule: Q01DX009 (ip), vehicle: saline 105 % of control | dose: 1.25 mg/kg/injection, schedule: Q01DX009 (ip), vehicle: saline 107 % of control | dose: 2.5 mg/kg/injection, schedule: Q01DX009 (ip), vehicle: saline 112 % of control | dose: 5.0 mg/kg/injection, schedule: Q01DX001 (ip), vehicle: saline 101 % of control | dose: 10.0 mg/kg/injection, schedule: Q01DX001 (ip), vehicle: saline 113 % of control

O=C(O)C1C2OC(C(Br)C2Br)C1C(=O)O (stereo not drawn)
inactive: [4] 106 % of control | dose: 100.0 mg/kg/injection, schedule: Q04DX003 (ip), vehicle: saline with Tween-80 93 % of control | [5] 98 % of control | [6] 95 % of control | [7] 95 % of control

CCOc1ccc(Cl)cc1C1N(Cc2ccc(OC)cc2)CCCN1Cc1ccc(OC)cc1
inactive: [8] 98 % of control | [9] 98 % of control | [10] 102 % of control

CCOc1ccc(-n2c(O)c(N=Nc3ccc(Cl)cc3)c(=O)n(-c3ccccc3)c2=S)cc1
inactive: dose: 100.0 mg/kg/injection, schedule: Q01DX001 (ip), vehicle: Klucel (hydroxypropylcellulose) (HPC) 104 % of control | dose: 200.0 mg/kg/injection, schedule: Q01DX001 (ip), vehicle: Klucel (hydroxypropylcellulose) (HPC) 105 % of control | dose: 400.0 mg/kg/injection, schedule: Q01DX001 (ip), vehicle: Klucel (hydroxypropylcellulose) (HPC) 94 % of control

CCC1CN2CCc3cc(OC)c(OC)cc3C2CC1O (stereo not drawn)
inactive: [11] 97 % of control | [12] 110 % of control

C/C=C1/C(=O)O[C@]23C=C[C@@H]4C(C(=O)OC)=CO[C@H](O[C@@H]12)[C@@H]43
inactive: [1] 104 % of control | [2] 103 % of control | [3] 98 % of control

CNC(=S)n1ncnc1N
inactive: dose: 25.0 mg/kg/injection, schedule: Q01DX009 (ip), vehicle: saline 102 % of control | dose: 50.0 mg/kg/injection, schedule: Q01DX009 (ip), vehicle: saline 114 % of control | dose: 100.0 mg/kg/injection, schedule: Q01DX009 (ip), vehicle: saline 109 % of control | [13] 104 % of control

O=C1NC23CC=CCC12CCCCCC3 (stereo not drawn)
inactive: dose: 100.0 mg/kg/injection, schedule: Q04DX002 (ip), vehicle: other 93 % of control | dose: 200.0 mg/kg/injection, schedule: Q04DX002 (ip), vehicle: other 90 % of control | dose: 400.0 mg/kg/injection, schedule: Q04DX002 (ip), vehicle: other 86 % of control

Nc1cc2c(cc1Cl)-c1ccccc1/C2=N\O
inactive: [8] 110 % of control | [9] 98 % of control | [10] 102 % of control

CSc1nc([N+](C)(C)C)cc([N+](C)(C)C)n1
inactive: dose: 6.0 mg/kg/injection, schedule: Q01DX Z (ip), vehicle: saline 91 % of control

CN1c2ccc3ccccc3c2Sc2ccc3ccccc3c21
inactive: dose: 100.0 mg/kg/injection, schedule: Q01DX009 (ip), vehicle: acetone 100 % of control | [13] 94 % of control | dose: 200.0 mg/kg/injection, schedule: Q01DX009 (ip), vehicle: acetone 100 % of control | dose: 200.0 mg/kg/injection, schedule: Q04DX003 (ip), vehicle: saline 95 % of control | dose: 400.0 mg/kg/injection, schedule: Q01DX009 (ip), vehicle: acetone 88 % of control | dose: 400.0 mg/kg/injection, schedule: Q04DX003 (ip), vehicle: saline 97 % of control

CC(C)(C)NC(=O)NCC1CCCC1NC(=O)NC(C)(C)C (stereo not drawn)
inactive: [4] 92 % of control | [5] 99 % of control | [7] 92 % of control

C=C(Br)CNC(=O)C(=O)OCC
inactive: dose: 50.0 mg/kg/injection, schedule: Q01DX009 (ip), vehicle: saline with Tween-80 97 % of control | [11] 94 % of control | dose: 132.0 mg/kg/injection, schedule: Q04DX003 (ip), vehicle: saline with Tween-80 93 % of control | [12] 97 % of control | [6] 90 % of control | dose: 300.0 mg/kg/injection, schedule: Q04DX003 (ip), vehicle: saline with Tween-80 96 % of control

CC(C)CC1NC(=O)C(C(C)C)NC(=O)CC(C)COC(=O)C(CC(C)C)N(C)C(=O)C(C(C)C)NC(=O)C(C(C)C)OC1=O (stereo not drawn)
inactive: dose: 75.0 mg/kg/injection, schedule: Q01DX001 (ip), vehicle: carboxymethylcellulose (CMC) 96 % of control | dose: 150.0 mg/kg/injection, schedule: Q01DX001 (ip), vehicle: carboxymethylcellulose (CMC) 96 % of control

Nc1nc(N)nc(-c2ccc(Cl)cc2)n1
inactive: dose: 25.0 mg/kg/injection, schedule: Q01DX001 (ip), vehicle: saline with Tween-80 96 % of control | dose: 50.0 mg/kg/injection, schedule: Q01DX001 (ip), vehicle: saline with Tween-80 98 % of control | dose: 100.0 mg/kg/injection, schedule: Q01DX001 (ip), vehicle: saline with Tween-80 101 % of control

CC(CO)(CO)N=Cc1ccc(N(CCCl)CCCl)cc1
inactive: [8] 106 % of control | [9] 97 % of control | [10] 101 % of control
